Measurements reported in patent US4946941A, “Novel glycopeptide antibiotics” (Shionogi & Co., Ltd., priority 1986, dated 1990).
In brackets after ≈: the same amount, converted by molar mass.

Key:
[1] = Solubility (physicochemical property)
[2] = system: Streptococcus pyogenes C-203; assay: In vitro antibacterial activity, agar dilution method (MIC); assay type: cell-based; conditions: agar dilution with 0.5% horse serum, 37° C., 18-20 hrs
Description: (§1) In vitro antibacterial activity was determined by the agar dilution method as described below.
(§2) One loopful of each test bacterium on a slant was inoculated into 1 ml of a growth medium (Trypto Soy Broth, Eiken Chemical Co.) and incubated at 37° C. for 18-20 hours. For the growth of Streptococci, Mueller-Hinton broth (Difco) supplemented with 3%(V/V) horse serum was employed. A hundred-fold dilution of the culture is used as an inoculum suspension of the bacterium.
(§3) The sample (9-10 mg) was weighed and dissolved in distilled water at a concentration of 2 mg/ml.
(§4) A sample solution was subjected to serial two fold dilutions with sterile water (2000-0.25 μg/ml). To sterile plastic petri dishes (9 cm in diameter) was poured 0.5 ml-aliquot of sample solutions, which was mixed with 9.5 ml of an agar medium (Sensitivity Test Agar, "Nissui"). For Streptococci, horse serum was supplied at 0.5%(V/V).
(§5) One loopful (1.0 μl) of the inoculum suspension was placed on the surface of the agar plates prepared as noted above. The bacterial growth was examined visually after overnight incubation (18-20 hrs) at 37° C.

[3] = system: Streptococcus pneumoniae Type I; assay: as above; assay type: cell-based; conditions: agar dilution with 0.5% horse serum, 37° C., 18-20 hrs
Description: as §1, §2, §3, §4, §5

[4] = system: Micrococcus luteus ATCC 9341; assay: as above; assay type: cell-based; conditions: 37° C., 18-20 hrs
Description: as §1, §2, §3, §4, §5

[5] = system: Staphylococcus aureus SR3626 (methicillin resistant); assay: as above; assay type: cell-based; conditions: 37° C., 18-20 hrs
Description: as §1, §2, §3, §4, §5

[6] = system: Streptococcus agalactica SR1247; assay: as above; assay type: cell-based; conditions: agar dilution with 0.5% horse serum, 37° C., 18-20 hrs
Description: as §1, §2, §3, §4, §5

[7] = system: Streptococcus faecalis SR1004; assay: as above; assay type: cell-based; conditions: agar dilution with 0.5% horse serum, 37° C., 18-20 hrs
Description: as §1, §2, §3, §4, §5

[8] = system: Staphylococcus aureus 3131 (methicillin resistant); assay: as above; assay type: cell-based; conditions: 37° C., 18-20 hrs
Description: as §1, §2, §3, §4, §5

[9] = system: Staphylococcus aureus SR14 (penicillin resistant); assay: as above; assay type: cell-based; conditions: 37° C., 18-20 hrs
Description: as §1, §2, §3, §4, §5

[10] = system: Staphylococcus aureus ATCC 25923; assay: as above; assay type: cell-based; conditions: 37° C., 18-20 hrs
Description: as §1, §2, §3, §4, §5

[11] = system: Staphylococcus aureus SMITH; assay: as above; assay type: cell-based; conditions: 37° C., 18-20 hrs
Description: as §1, §2, §3, §4, §5

[12] = system: Staphylococcus aureus SR1626 (methicillin resistant); assay: as above; assay type: cell-based; conditions: 37° C., 18-20 hrs
Description: as §1, §2, §3, §4, §5

[13] = system: Staphylococcus aureus FDA 209F JC-1; assay: as above; assay type: cell-based; conditions: 37° C., 18-20 hrs
Description: as §1, §2, §3, §4, §5

[14] = system: Streptococcus pneumoniae Type I; assay: Protective test in mice (in vivo antibacterial activity); conditions: Streptococcus pneumoniae Type I i.p. challenge, Slc-ICR female mice; s.c. 1 and 5 hours post-infection; survival on day 7
Description: (§6) Method: Test bacterium is intraperitoneally challenged to Slc-ICR female mice (8 mice/group), to which PA-42867-A and des-(4-epi-vancosaminyl) PA-42867-A (serial two fold dilution) are subcutaneously administered 1 and 5 hours post-infection.
(§7) Result: ED50 (50% effective dose) is calculated from survival rate of mice on day 7 after the infection.

[15] = system: Staphylococcus aureus SR2030 (methicillin-resistant); assay: as above; conditions: Staphylococcus aureus SR2030 (methicillin-resistant) i.p. challenge, Slc-ICR female mice; s.c. 1 and 5 hours post-infection; survival on day 7
Description: as §6, §7

[16] = system: Staphylococcus aureus SMITH; assay: as above; conditions: Staphylococcus aureus SMITH i.p. challenge, Slc-ICR female mice; s.c. 1 and 5 hours post-infection; survival on day 7
Description: as §6, §7

[17] = system: Streptoccus pyogenes C-302; assay: as above; conditions: Streptoccus pyogenes C-302 i.p. challenge, Slc-ICR female mice; s.c. 1 and 5 hours post-infection; survival on day 7
Description: as §6, §7

[18] = in ether, benzene, chloroform and ethyl acetate

Row | Solubility ([1]; in alcohol) | Solubility [1, 18] | Solubility ([1]; in water and dimethylsulfoxide) | MIC [2] [µg/mL] | MIC [3] [µg/mL] | MIC [4] [µg/mL] | MIC [5] [µg/mL] | MIC [6] [µg/mL] | MIC [7] [µg/mL] | MIC [8] [µg/mL] | MIC [9] [µg/mL] | MIC [10] [µg/mL] | MIC [11] [µg/mL] | MIC [12] [µg/mL] | MIC [13] [µg/mL] | SMILES | ED50 (50% effective dose) [14] [mg/kg/dose] | ED50 (50% effective dose) [15] [mg/kg/dose] | ED50 (50% effective dose) [16] [mg/kg/dose] | ED50 (50% effective dose) [17] [mg/kg/dose]
1 | Slightly soluble | Insoluble | Soluble | 0.39 (≈ 0.25 µM) | 0.39 (≈ 0.25 µM) | 0.39 (≈ 0.25 µM) | 0.78 (≈ 0.501 µM) | 0.39 (≈ 0.25 µM) | 1.56 (≈ 1 µM) | 0.78 (≈ 0.501 µM) | 0.78 (≈ 0.501 µM) | 0.78 (≈ 0.501 µM) | 0.78 (≈ 0.501 µM) | 0.78 (≈ 0.501 µM) | 0.39 (≈ 0.25 µM) | CN[C@H](CC(C)C)C(=O)N[C@H]1C(=O)N[C@@H](CC(N)=O)C(=O)N[C@H]2C(=O)N[C@H]3C(=O)N[C@H](C(=O)N[C@H](C(=O)O)c4cc(O)cc(O)c4-c4cc3ccc4O)[C@H](O[C@H]3C[C@](C)(N)[C@@H](O)[C@H](C)O3)c3ccc(c(Cl)c3)Oc3cc2cc(c3O[C@@H]2O[C@H](CO)[C@@H](O)[C@H](O)[C@H]2O[C@H]2C[C@](C)(N)[C@@H](O)[C@H](C)O2)Oc2ccc(cc2)[C@H]1O [Compd. A, PA-42867-A] | 0.90 | 2.31 | 0.62 | 0.64
2 | Slightly soluble | Insoluble | Soluble | 0.78 (≈ 0.505 µM) | 0.78 (≈ 0.505 µM) | 1.56 (≈ 1.01 µM) | 1.56 (≈ 1.01 µM) | 0.78 (≈ 0.505 µM) | 3.13 (≈ 2.03 µM) | 1.56 (≈ 1.01 µM) | 1.56 (≈ 1.01 µM) | 3.13 (≈ 2.03 µM) | 3.13 (≈ 2.03 µM) | 1.56 (≈ 1.01 µM) | 1.56 (≈ 1.01 µM) | CN[C@H](CC(C)C)C(=O)N[C@H]1C(=O)N[C@@H](CC(N)=O)C(=O)N[C@H]2C(=O)N[C@H]3C(=O)N[C@H](C(=O)N[C@H](C(=O)O)c4cc(O)cc(O)c4-c4cc3ccc4O)[C@H](O[C@H]3C[C@](C)(N)[C@@H](O)[C@H](C)O3)c3ccc(c(Cl)c3)Oc3cc2cc(c3O[C@@H]2O[C@H](CO)[C@@H](O)[C@H](O)[C@H]2O[C@H]2C[C@H](O)[C@@H](O)[C@H](C)O2)Oc2ccc(cc2)[C@H]1O [Compd. B, PA-42867-B] | – | – | – | –
3 | – | – | – | 0.78 (≈ 0.551 µM) | 0.78 (≈ 0.551 µM) | 0.78 (≈ 0.551 µM) | 1.56 (≈ 1.1 µM) | 0.78 (≈ 0.551 µM) | 1.56 (≈ 1.1 µM) | 1.56 (≈ 1.1 µM) | 1.56 (≈ 1.1 µM) | 1.56 (≈ 1.1 µM) | 1.56 (≈ 1.1 µM) | 1.56 (≈ 1.1 µM) | 0.78 (≈ 0.551 µM) | CN[C@H](CC(C)C)C(=O)N[C@H]1C(=O)N[C@@H](CC(N)=O)C(=O)N[C@H]2C(=O)N[C@H]3C(=O)N[C@H](C(=O)N[C@H](C(=O)O)c4cc(O)cc(O)c4-c4cc3ccc4O)[C@H](O[C@H]3C[C@](C)(N)[C@@H](O)[C@H](C)O3)c3ccc(c(Cl)c3)Oc3cc2cc(c3O[C@@H]2O[C@H](CO)[C@@H](O)[C@H](O)[C@H]2O)Oc2ccc(cc2)[C@H]1O [Compd. C, des-(4-epi-vancosaminyl)-PA-42867-A] | 2.11 | 2.91 | 1.47 | 1.43
4 | – | – | – | 0.39 (≈ 0.311 µM) | 0.78 (≈ 0.623 µM) | 0.78 (≈ 0.623 µM) | 0.78 (≈ 0.623 µM) | 0.78 (≈ 0.623 µM) | 0.78 (≈ 0.623 µM) | 0.78 (≈ 0.623 µM) | 0.78 (≈ 0.623 µM) | 1.56 (≈ 1.25 µM) | 0.78 (≈ 0.623 µM) | 0.78 (≈ 0.623 µM) | 0.78 (≈ 0.623 µM) | CN[C@H](CC(C)C)C(=O)N[C@H]1C(=O)N[C@@H](CC(N)=O)C(=O)N[C@H]2C(=O)N[C@H]3C(=O)N[C@H](C(=O)N[C@H](C(=O)O)c4cc(O)cc(O)c4-c4cc3ccc4O)[C@H](O[C@H]3C[C@](C)(N)[C@@H](O)[C@H](C)O3)c3ccc(c(Cl)c3)Oc3cc2cc(c3O)Oc2ccc(cc2)[C@H]1O [Compd. D, des-(4-epi-vancosaminyl-O-glucosyl)-PA-42867-A] | – | – | – | –
